The test deals with PRMT5/MEP50 complex (Homo sapiens, UniProt O14744). Nature of the test: Inhibition of recombinant human fetal brain FLAG-tagged PRMT5/full length human testis 6His-tagged MEP50 expressed in baculovirus infected insect Sf9 cells using human histone H4 (1 to 15 residues) as substrate preincubated for 30 mins followed by [3H]-SAM addition.
Chain of PRMT5/MEP50 complex (O14744 whole entry, the tested form may be a part): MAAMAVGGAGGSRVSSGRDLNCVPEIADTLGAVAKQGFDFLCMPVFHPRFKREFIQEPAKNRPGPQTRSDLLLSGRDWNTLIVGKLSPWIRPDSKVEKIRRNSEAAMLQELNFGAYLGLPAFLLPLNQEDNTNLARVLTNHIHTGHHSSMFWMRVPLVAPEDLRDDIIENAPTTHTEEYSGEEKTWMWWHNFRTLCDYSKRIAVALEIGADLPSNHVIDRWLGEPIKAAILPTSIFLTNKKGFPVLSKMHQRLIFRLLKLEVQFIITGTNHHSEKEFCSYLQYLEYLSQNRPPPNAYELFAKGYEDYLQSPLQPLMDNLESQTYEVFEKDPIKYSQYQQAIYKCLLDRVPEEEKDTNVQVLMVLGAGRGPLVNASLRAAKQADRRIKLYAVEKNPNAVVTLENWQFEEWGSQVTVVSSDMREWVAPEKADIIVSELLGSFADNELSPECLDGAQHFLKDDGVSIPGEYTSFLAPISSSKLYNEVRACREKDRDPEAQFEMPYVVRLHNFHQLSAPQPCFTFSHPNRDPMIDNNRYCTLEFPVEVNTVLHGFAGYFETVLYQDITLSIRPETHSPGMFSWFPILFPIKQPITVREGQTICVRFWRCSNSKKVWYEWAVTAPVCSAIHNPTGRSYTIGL
Chain of PRMT5/MEP50 complex (Q9BQA1 whole entry, further chain, the tested form may be a part): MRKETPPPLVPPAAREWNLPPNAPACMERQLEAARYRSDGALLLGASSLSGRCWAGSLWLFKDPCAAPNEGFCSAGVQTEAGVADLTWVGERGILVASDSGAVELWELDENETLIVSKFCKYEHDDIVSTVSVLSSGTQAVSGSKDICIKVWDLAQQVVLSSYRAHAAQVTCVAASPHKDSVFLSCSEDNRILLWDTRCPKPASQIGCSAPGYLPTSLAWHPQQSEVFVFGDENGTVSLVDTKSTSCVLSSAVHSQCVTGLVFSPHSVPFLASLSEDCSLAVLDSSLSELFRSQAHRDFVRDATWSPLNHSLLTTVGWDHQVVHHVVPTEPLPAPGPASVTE
As to `COc1ccc(Cn2ccc(-c3ccc(OC[C@H](O)CN4CCc5ccccc5C4)cc3)n2)cc1`, the IC50 fell in the range of 1 to 10 µM. On to `CN(C(=O)c1cncn1C)c1cccc(OCC(O)CN2CCc3ccccc3C2)c1` (stereo not drawn), for which the IC50 was 1 to 10 µM. The same measure for `OC(COc1cccc(-c2ccncc2F)c1)CN1CCc2ccccc2C1` (stereo not drawn): 1 to 10 µM; for `COc1ncc(-c2cccc(OCC(O)CN3CCc4ccccc4C3)c2)cn1` (stereo not drawn): 1 to 10 µM; for `COc1cccc2c1CN(CC(O)COc1cccc(-c3ccc4ncn(C)c4c3)c1)CC2` (stereo not drawn): 1 to 10 µM. The same measure for `OC(COc1cccc(-c2ccc(F)cc2)c1)CN1CCc2ccccc2C1` (stereo not drawn): 1 to 10 µM; for `OC(COc1ccc(Cc2ccccc2)cc1)CN1CCc2ccccc2C1` (stereo not drawn): 0.101 to 1 µM; for `CC1CN(CC(O)COc2cccc(-c3ccc4ncn(C)c4c3)c2)Cc2ccccc21` (stereo not drawn): 1 to 10 µM. The same measure for `OC(COc1ccc(OCc2ccccc2)cc1)CN1CCc2ccccc2C1` (stereo not drawn): 1 to 10 µM. Consider `Cn1cc2cc(-c3cccc(OCC(O)CN4CCc5ccccc5C4)c3)ccc2n1` (stereo not drawn), for which the concentration for half-maximal inhibition (IC50) is 1 to 10 µM. With `CC1Cc2ccccc2CN1CC(O)COc1cccc(-c2ccc3ncn(C)c3c2)c1` (stereo not drawn), the IC50 lay in the range of 1 to 10 µM. Consider `OCc1ccc(-c2cccc(OCC(O)CN3CCc4ccccc4C3)c2)cc1` (stereo not drawn), for which the IC50 lay in the range of 1 to 10 µM. As to `Oc1ccc(-c2cccc(OCC(O)CN3CCc4ccccc4C3)c2)cc1F` (stereo not drawn), the IC50 fell in the range of 1 to 10 µM.

As for `OC(COc1cccc(CNC2CCCCC2)c1)CN1CCc2ccccc2C1` (stereo not drawn), the IC50 is 0.101 to 1 µM. As to `COc1cc2c(cc1OC)CN(CC(O)COc1cccc(-c3ccc4ncn(C)c4c3)c1)CC2` (stereo not drawn), the IC50 was greater than 40 µM. In the case of `OC(COc1cccc(-c2ccccn2)c1)CN1CCc2ccccc2C1` (stereo not drawn), the IC50 lay in the range of 1 to 10 µM. The same measure for `COc1ccc(Cn2ccc(-c3ccc(OC[C@@H](O)CN4CCc5ccccc5C4)cc3)n2)cc1`: 10 to 40 µM; for `OC(COc1cccc(CNC2CCOCC2)c1)CN1CCc2ccccc2C1` (stereo not drawn): 0.101 to 1 µM. Regarding `OC(COCc1cc(-c2ccc(Cl)cc2)no1)CN1CCc2ccccc2C1` (stereo not drawn), the 50% inhibitory concentration (IC50) fell in the range of 0.101 to 1 µM. With `OC(COc1cccc(N2CCc3[nH]nc(-c4ccccc4)c3C2)c1)CN1CCc2ccccc2C1` (stereo not drawn), the half-inhibitory concentration (IC50) lay within 1 to 10 µM. `OC(CNc1cc(-c2ccc3ncn(C4CNC4)c3c2)ccn1)CN1CCc2ccccc2C1` (stereo not drawn): the IC50 was less than 0.1 µM.

Turning to `Cn1cnc2ccc(-c3cccc(OCC(O)CN4CCc5ccc(Cl)cc5C4)c3)cc21` (stereo not drawn), the IC50 is 1 to 10 µM. `CN(C(=O)c1cn(C)cn1)c1cccc(OCC(O)CN2CCc3ccccc3C2)c1` (stereo not drawn): the IC50 was in the range of 1 to 10 µM. The same measure for `CNC(=O)Cn1ccc2cnc(-c3cccc(OCC(O)CN4CCc5ccccc5C4)c3)nc21` (stereo not drawn): 1 to 10 µM; for `COc1ccc2c(c1)CN(CC(O)COc1cccc(-c3ccc4ncn(C)c4c3)c1)CC2` (stereo not drawn): 10 to 40 µM; for `OC(COc1cccc(-c2cccc(Oc3ccccc3)c2)c1)CN1CCc2ccccc2C1` (stereo not drawn): 1 to 10 µM. The same measure for `OC(COc1cccc(-c2cnccn2)c1)CN1CCc2ccccc2C1` (stereo not drawn): 1 to 10 µM. For the compound `O=C(Nc1cccc(OCC(O)CN2CCc3ccccc3C2)c1)c1cnco1` (stereo not drawn), the IC50 lay within 1 to 10 µM. The same measure for `Cn1cnc2nc(-c3cccc(OCC(O)CN4CCc5ccccc5C4)c3)ncc21` (stereo not drawn): 1 to 10 µM.

As to `OC(COc1ccccc1C1CCCCC1)CN1CCc2ccccc2C1` (stereo not drawn), the IC50 lay in the range of 1 to 10 µM. As for `OC(COc1cccc(-c2ccc(Cl)cc2)c1)CN1CCc2ccccc2C1` (stereo not drawn), the IC50 lay within 1 to 10 µM. As for `OC(COc1cccc(CN2CCCCC2)c1)CN1CCc2ccccc2C1` (stereo not drawn), the IC50 was 1 to 10 µM. Regarding `OC(COCc1ccc(CN2CCOCC2)cc1)CN1CCc2ccccc2C1` (stereo not drawn), the IC50 fell in the range of 1 to 10 µM. As for `CN1CC(n2cnc3ccc(-c4ccnc(NCC(O)CN5CCc6ccccc6C5)c4)cc32)C1` (stereo not drawn), the IC50 is less than 0.1 µM.

With `Cn1cnc2ccc(-c3cccc(OCC(O)CN4CCc5ccccc5C4CC(N)=O)c3)cc21` (stereo not drawn), the IC50 is greater than 40 µM. On to `CC1CN(CC(O)COc2cccc(CNC3CCCC3)c2)Cc2ccccc21` (stereo not drawn), for which the IC50 was greater than 40 µM. The same measure for `OC(CCc1cccc(CNC2CCCC2)c1)CN1CCc2ccccc2C1` (stereo not drawn): 10 to 40 µM; for `OC(COc1cccc(C2=CCCCC2)c1)CN1CCc2ccccc2C1` (stereo not drawn): 1 to 10 µM. The same measure for `Cn1cnc2ccc(N3CCCC(OCC(O)CN4CCc5ccccc5C4)C3)cc21` (stereo not drawn): 0.101 to 1 µM. The same measure for `CN(C(=O)c1cocn1)c1cccc(OCC(O)CN2CCc3ccccc3C2)c1` (stereo not drawn): 10 to 40 µM; for `Cc1ccc(-c2cccc(OCC(O)CN3CCc4ccccc4C3)c2)cn1` (stereo not drawn): 1 to 10 µM. `CC1Cc2ccccc2CN1CC(O)COc1cccc(CNC2CCCC2)c1` (stereo not drawn): the IC50 is greater than 40 µM.

In the case of `COc1ccc(Cn2nccc2-c2ccc(OC[C@H](O)CN3CCc4ccccc4C3)cc2)cc1`, the IC50 lay in the range of 1 to 10 µM. In the case of `O=C(NC1CCOCC1)c1cccc(NCC(O)CN2CCc3ccccc3C2)c1` (stereo not drawn), the IC50 is 10 to 40 µM.

Turning to `CCOC(=O)CC1c2ccccc2CCN1CC(O)COc1cccc(-c2ccc3ncn(C)c3c2)c1` (stereo not drawn), the IC50 was in the range of 1 to 10 µM. `COc1ccccc1-c1cccc(OCC(O)CN2CCc3ccccc3C2)c1` (stereo not drawn): the IC50 fell in the range of 1 to 10 µM.

For `OC(COc1cccc(-c2ccncc2)c1)CN1CCc2ccccc2C1` (stereo not drawn), the IC50 lay within 1 to 10 µM. For `OC(COc1cccc(CNc2cc[nH]n2)c1)CN1CCc2ccccc2C1` (stereo not drawn), the IC50 lay in the range of 0.101 to 1 µM. The same measure for `CN(CC(O)CN1CCc2ccccc2C1)c1cccc(C(=O)NC2CCOCC2)c1` (stereo not drawn): 10 to 40 µM; for `OC(COc1ccccc1N1CCNCC1)CN1CCc2ccccc2C1` (stereo not drawn): 10 to 40 µM. The same measure for `Cn1cnc2ccc(-c3cccc(OCC(O)CN4CCc5c(Cl)cccc5C4)c3)cc21` (stereo not drawn): 1 to 10 µM; for `OC(COc1cccc(CNC2CCNCC2)c1)CN1CCc2ccccc2C1` (stereo not drawn): 1 to 10 µM; for `Cn1cnc2ccc(-c3cccc(OCC(O)CN4CCc5ccccc5C4=O)c3)cc21` (stereo not drawn): greater than 40 µM.

In the case of `Oc1ccc(-c2cccc(OCC(O)CN3CCc4ccccc4C3)c2)cc1` (stereo not drawn), the IC50 fell in the range of 1 to 10 µM. The same measure for `CCOC(=O)C1c2ccccc2CCN1CC(O)COc1cccc(-c2ccc3ncn(C)c3c2)c1` (stereo not drawn): greater than 40 µM; for `OC(COc1cccc(-c2cccc(Cl)c2)c1)CN1CCc2ccccc2C1` (stereo not drawn): 1 to 10 µM. Regarding `Cc1cccc2c1CCN(CC(O)COc1cccc(-c3ccc4ncn(C)c4c3)c1)C2` (stereo not drawn), the IC50 is 1 to 10 µM. The same measure for `Cn1cnc2ccc(-c3nccc(NCC(O)CN4CCc5ccccc5C4)n3)cc21` (stereo not drawn): 1 to 10 µM; for `O=C(c1cncc(-c2cccc(OCC(O)CN3CCc4ccccc4C3)c2)c1)N1CCCC1` (stereo not drawn): 1 to 10 µM. The same measure for `OC(COc1cccc(-c2cncnc2)c1)CN1CCc2ccccc2C1` (stereo not drawn): 1 to 10 µM; for `OC(COC1CCN(c2ccccc2)C1)CN1CCc2ccccc2C1` (stereo not drawn): 1 to 10 µM.

`OC(COc1ccccc1-c1ccno1)CN1CCc2ccccc2C1` (stereo not drawn): the IC50 lay in the range of 1 to 10 µM.

Regarding `OC(COc1cccc(-c2cc(Cl)cc(C(F)(F)F)c2)c1)CN1CCc2ccccc2C1` (stereo not drawn), the IC50 fell in the range of 1 to 10 µM. The same measure for `OC(COc1ccc(-c2ccn[nH]2)cc1)CN1CCc2ccccc2C1` (stereo not drawn): 1 to 10 µM.

Regarding `Cn1cnc2ccc(-c3cccc(OCC(O)CN4CCc5ccccc5C4(C)C)c3)cc21` (stereo not drawn), the IC50 is 1 to 10 µM. The same measure for `Cc1cc(OCC(O)CN2CCc3ccccc3C2)c(C)cc1CN1CCOCC1` (stereo not drawn): 0.101 to 1 µM; for `CC(=O)N1CCC(n2cnc3ccc(-c4cccc(OCC(O)CN5CCc6ccccc6C5)c4)cc32)CC1` (stereo not drawn): 0.101 to 1 µM.

`Cc1ccc2c(c1)CN(CC(O)COc1cccc(-c3ccc4ncn(C)c4c3)c1)CC2` (stereo not drawn): the IC50 lay in the range of 1 to 10 µM. Consider `CN(C(=O)c1cccnc1)c1cccc(OCC(O)CN2CCc3ccccc3C2)c1` (stereo not drawn), for which the IC50 was in the range of 1 to 10 µM. The same measure for `O=C(Nc1cccc(OCC(O)CN2CCc3ccccc3C2)c1)c1cocn1` (stereo not drawn): 1 to 10 µM; for `OC(COc1cccc(-c2ccc(C(F)(F)F)cc2)c1)CN1CCc2ccccc2C1` (stereo not drawn): 1 to 10 µM. In the case of `Cn1ccc2ccc(-c3ccnc(NCC(O)CN4CCc5ccccc5C4)c3)cc21` (stereo not drawn), the IC50 was less than 0.1 µM.

Take `Cn1cncc1C(=O)Nc1cccc(OCC(O)CN2CCc3ccccc3C2)c1` (stereo not drawn): the IC50 is 1 to 10 µM.

As to `Cc1cccc2c1CN(CC(O)COc1cccc(-c3ccc4ncn(C)c4c3)c1)CC2` (stereo not drawn), the IC50 lay within 1 to 10 µM. Turning to `O=C(Nc1cccc(OCC(O)CN2CCc3ccccc3C2)c1)c1ccnnc1` (stereo not drawn), the IC50 was 1 to 10 µM. Turning to `OC(COc1cccc(-c2cccnc2)c1)CN1CCc2ccccc2C1` (stereo not drawn), the IC50 is 1 to 10 µM. In the case of `OC(COc1cccc(C2CCCCC2)c1)CN1CCc2ccccc2C1` (stereo not drawn), the IC50 was in the range of 1 to 10 µM. Regarding `CN(C(=O)c1cnco1)c1cccc(OCC(O)CN2CCc3ccccc3C2)c1` (stereo not drawn), the IC50 lay in the range of 1 to 10 µM. Regarding `CN(C)S(=O)(=O)c1cccc(-c2cccc(OCC(O)CN3CCc4ccccc4C3)c2)c1` (stereo not drawn), the IC50 was greater than 40 µM.

For the compound `O=C(Cn1ccc2cnc(-c3cccc(OCC(O)CN4CCc5ccccc5C4)c3)nc21)N1CCCC1` (stereo not drawn), the IC50 is 0.101 to 1 µM. For the compound `OC(COc1cccc2ccc(N3CCOCC3)nc12)CN1CCc2ccccc2C1` (stereo not drawn), the IC50 was 1 to 10 µM. On to `O=C(Cn1ccc2cnc(-c3cccc(OCC(O)CN4CCc5ccccc5C4)c3)nc21)N1CCCCC1` (stereo not drawn), for which the IC50 was in the range of 0.101 to 1 µM.

Turning to `OC(COC1CCN(Cc2ccccc2)C1)CN1CCc2ccccc2C1` (stereo not drawn), the IC50 lay in the range of 1 to 10 µM. Turning to `COc1ccc(Cl)c(-c2cccc(OCC(O)CN3CCc4ccccc4C3)c2)c1` (stereo not drawn), the IC50 lay in the range of 1 to 10 µM. On to `OC(COc1cccc(-c2cccc(C(F)(F)F)c2)c1)CN1CCc2ccccc2C1` (stereo not drawn), for which the IC50 is 1 to 10 µM. Take `COc1cccc2c1CCN(CC(O)COc1cccc(CNC3CCCC3)c1)C2` (stereo not drawn): the half-maximal inhibitory concentration (IC50) is greater than 40 µM. Turning to `COc1ccc(Cn2nccc2-c2ccc(OC[C@@H](O)CN3CCc4ccccc4C3)cc2)cc1`, the IC50 is greater than 40 µM. With `OC(COc1cccc(OCc2ccccc2)c1)CN1CCc2ccccc2C1` (stereo not drawn), the IC50 fell in the range of 1 to 10 µM. The same measure for `COc1cccc2c1CCN(CC(O)COc1cccc(-c3ccc4ncn(C)c4c3)c1)C2` (stereo not drawn): 1 to 10 µM; for `Cn1cc(-c2cccc(OCC(O)CN3CCc4ccccc4C3)c2)cn1` (stereo not drawn): 1 to 10 µM.

Regarding `Cn1cnc2ccc(-c3cccc(OCC(O)CN4CCc5ccccc5C4Cc4ccccc4)c3)cc21` (stereo not drawn), the IC50 was greater than 40 µM. The same measure for `OC(COc1cccc(-c2cncc(F)c2)c1)CN1CCc2ccccc2C1` (stereo not drawn): 1 to 10 µM; for `Cn1cnc2ccc(-c3cccc(OCC(O)CN4CCc5ccccc5C4COc4ccccc4)c3)cc21` (stereo not drawn): greater than 40 µM.

Usually IC50 stands for the concentration that gives 50% inhibition.
